Tests used:
S. aureus DSM 20231 [1] = assay: Bliss interaction score (quartile over a dose matrix) (fitness difference); higher = more antagonism (negative = synergy)
Outline: (§1)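 Each plate was normalised to the robust mean of its own no-drug wells, using OD595 at entry into stationary phase, with values capped at 1. This normalised growth is the fitness value. The Bliss score is the difference between observed and product-expected fitness, with single-drug fitness inferred from the combination data and quartiles taken over technical, biological and donor/recipient replicates.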

S. pneumoniae D39V [2] = assay: as above
Outline: as §1

S. aureus Newman [3] = assay: as above
Outline: as §1

B. subtilis 168 [4] = assay: as above
Outline: as §1

S. aureus DSM 20231 [5] = assay: fitness (endpoint OD595 vs no drug) (fraction); higher = more growth
Outline: (§2)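 Background-subtracted growth curves were the basis for fitness, taken as the optical density at entry into stationary phase over the robust mean of no-drug control wells. A cap of 1 was applied. The curves came from OD595 readings every 30 min for 14 h at 37 °C, in 384-well plates seeded at OD595 0.01 with 30 µl, or 55 µl for S. pneumoniae.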

S. pneumoniae D39V [6] = assay: as above
Outline: as §2

S. aureus Newman [7] = assay: as above
Outline: as §2

B. subtilis 168 [8] = assay: as above
Outline: as §2
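Throughout, for Bliss interaction score (quartile over a dose matrix): first quartile when negative (synergy) and third quartile when positive (antagonism).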

C[C@@H]1O[C@@H]1P(=O)(O)O [Fosfomycin] + COc1c(N2C[C@@H]3CCCN[C@@H]3C2)c(F)cc2c(=O)c(C(=O)O)cn(C3CC3)c12 [Moxifloxacin]
Settings | Bliss interaction score
B. subtilis 168 [4] | -0.0148
S. aureus DSM 20231 [1] | 0.0661
S. aureus Newman [3] | -0.0851
S. pneumoniae D39V [2] | 0.0534

Settings | fitness
B. subtilis 168 [8], first compound 1.562 µg/mL, partner 0.0312 µg/mL | 0.0743
B. subtilis 168 [8], first compound 1.562 µg/mL, partner 0.0625 µg/mL | 0.0627
B. subtilis 168 [8], first compound 1.562 µg/mL, partner 0.125 µg/mL | 0.0277
B. subtilis 168 [8], first compound 1.562 µg/mL, partner 2 µg/mL | 0.0303
B. subtilis 168 [8], first compound 1.562 µg/mL, partner 4 µg/mL | 0.0293
B. subtilis 168 [8], first compound 1.562 µg/mL, partner 8 µg/mL | 0.0076
B. subtilis 168 [8], first compound 3.124 µg/mL, partner 0.0312 µg/mL | 0.0504
B. subtilis 168 [8], first compound 3.124 µg/mL, partner 0.0625 µg/mL | 0.0309
B. subtilis 168 [8], first compound 3.124 µg/mL, partner 0.125 µg/mL | 0.0339
B. subtilis 168 [8], first compound 3.124 µg/mL, partner 2 µg/mL | 0.033
B. subtilis 168 [8], first compound 3.124 µg/mL, partner 4 µg/mL | 0.0332
B. subtilis 168 [8], first compound 3.124 µg/mL, partner 8 µg/mL | 0.0176
B. subtilis 168 [8], first compound 6.248 µg/mL, partner 0.0312 µg/mL | 0.0469
B. subtilis 168 [8], first compound 6.248 µg/mL, partner 0.0625 µg/mL | 0.0265
B. subtilis 168 [8], first compound 6.248 µg/mL, partner 0.125 µg/mL | 0.0207
B. subtilis 168 [8], first compound 6.248 µg/mL, partner 2 µg/mL | 0.016
B. subtilis 168 [8], first compound 6.248 µg/mL, partner 4 µg/mL | 0.0083
B. subtilis 168 [8], first compound 6.248 µg/mL, partner 8 µg/mL | 0.0062
S. aureus DSM 20231 [5], first compound 0.781 µg/mL, partner 0.0075 µg/mL | 0.629
S. aureus DSM 20231 [5], first compound 0.781 µg/mL, partner 0.015 µg/mL | 0.609
S. aureus DSM 20231 [5], first compound 0.781 µg/mL, partner 0.03 µg/mL | 0.606
S. aureus DSM 20231 [5], first compound 1.562 µg/mL, partner 0.0075 µg/mL | 0.592
S. aureus DSM 20231 [5], first compound 1.562 µg/mL, partner 0.015 µg/mL | 0.564
S. aureus DSM 20231 [5], first compound 1.562 µg/mL, partner 0.03 µg/mL | 0.538
S. aureus DSM 20231 [5], first compound 3.124 µg/mL, partner 0.0075 µg/mL | 0.493
S. aureus DSM 20231 [5], first compound 3.124 µg/mL, partner 0.015 µg/mL | 0.455
S. aureus DSM 20231 [5], first compound 3.124 µg/mL, partner 0.03 µg/mL | 0.299
S. aureus Newman [7], first compound 0.781 µg/mL, partner 0.0075 µg/mL | 0.587
S. aureus Newman [7], first compound 0.781 µg/mL, partner 0.015 µg/mL | 0.509
S. aureus Newman [7], first compound 0.781 µg/mL, partner 0.03 µg/mL | 0.0675
S. aureus Newman [7], first compound 1.562 µg/mL, partner 0.0075 µg/mL | 0.413
S. aureus Newman [7], first compound 1.562 µg/mL, partner 0.015 µg/mL | 0.358
S. aureus Newman [7], first compound 1.562 µg/mL, partner 0.03 µg/mL | 0.0359
S. aureus Newman [7], first compound 3.124 µg/mL, partner 0.0075 µg/mL | 0.0916
S. aureus Newman [7], first compound 3.124 µg/mL, partner 0.015 µg/mL | 0.0267
S. aureus Newman [7], first compound 3.124 µg/mL, partner 0.03 µg/mL | 0.015
S. pneumoniae D39V [6], first compound 1.25 µg/mL, partner 0.005 µg/mL | 0.985
S. pneumoniae D39V [6], first compound 1.25 µg/mL, partner 0.01 µg/mL | 0.988
S. pneumoniae D39V [6], first compound 1.25 µg/mL, partner 0.02 µg/mL | 0.924
S. pneumoniae D39V [6], first compound 1.25 µg/mL, partner 0.0312 µg/mL | 0.139
S. pneumoniae D39V [6], first compound 1.25 µg/mL, partner 0.0625 µg/mL | 0.0679
S. pneumoniae D39V [6], first compound 1.25 µg/mL, partner 0.125 µg/mL | 0.0548
S. pneumoniae D39V [6], first compound 2.5 µg/mL, partner 0.005 µg/mL | 0.93
S. pneumoniae D39V [6], first compound 2.5 µg/mL, partner 0.01 µg/mL | 0.983
S. pneumoniae D39V [6], first compound 2.5 µg/mL, partner 0.02 µg/mL | 0.903
S. pneumoniae D39V [6], first compound 2.5 µg/mL, partner 0.0312 µg/mL | 0.12
S. pneumoniae D39V [6], first compound 2.5 µg/mL, partner 0.0625 µg/mL | 0.0706
S. pneumoniae D39V [6], first compound 2.5 µg/mL, partner 0.125 µg/mL | 0.0382
S. pneumoniae D39V [6], first compound 5 µg/mL, partner 0.005 µg/mL | 0.808
S. pneumoniae D39V [6], first compound 5 µg/mL, partner 0.01 µg/mL | 0.88
S. pneumoniae D39V [6], first compound 5 µg/mL, partner 0.02 µg/mL | 0.855
S. pneumoniae D39V [6], first compound 5 µg/mL, partner 0.0312 µg/mL | 0.106
S. pneumoniae D39V [6], first compound 5 µg/mL, partner 0.0625 µg/mL | 0.0921
S. pneumoniae D39V [6], first compound 5 µg/mL, partner 0.125 µg/mL | 0.0302

fitness, S. aureus DSM 20231 [5], one replicate
Settings | first compound 0.781 µg/mL | first compound 1.562 µg/mL | first compound 3.124 µg/mL
partner 0.06 µg/mL | 0.655 | 0.585 | 0.465
partner 0.12 µg/mL | 0.46 | 0.403 | 0.247

C[C@@H]1O[C@@H]1P(=O)(O)O [Fosfomycin] + COc1ccc(C[C@H](N)C(=O)N[C@H]2[C@@H](O)[C@H](n3cnc4c(N(C)C)ncnc43)O[C@@H]2CO)cc1 [Puromycin]
Settings | Bliss interaction score
B. subtilis 168 [4] | 0.0393
S. aureus DSM 20231 [1] | 0.047
S. aureus Newman [3] | -0.0684
S. pneumoniae D39V [2] | 0.116

fitness
Settings | partner 0.39 µg/mL | partner 0.78 µg/mL | partner 1 µg/mL | partner 1.56 µg/mL | partner 2 µg/mL
B. subtilis 168 [8], first compound 1.562 µg/mL | 0.694 | 0.712 | – | 0.672 | –
B. subtilis 168 [8], first compound 3.124 µg/mL | 0.65 | 0.562 | – | 0.583 | –
B. subtilis 168 [8], first compound 6.248 µg/mL | 0.407 | 0.354 | – | 0.378 | –
S. aureus DSM 20231 [5], first compound 0.781 µg/mL | 0.799 | 0.776 | – | 0.829 | –
S. aureus DSM 20231 [5], first compound 1.562 µg/mL | 0.631 | 0.662 | – | 0.632 | –
S. aureus DSM 20231 [5], first compound 3.124 µg/mL | 0.491 | 0.541 | – | 0.514 | –
S. aureus Newman [7], first compound 0.781 µg/mL | 0.55 | 0.579 | – | 0.612 | –
S. aureus Newman [7], first compound 1.562 µg/mL | 0.463 | 0.495 | – | 0.516 | –
S. aureus Newman [7], first compound 3.124 µg/mL | 0.134 | 0.149 | – | 0.108 | –
S. pneumoniae D39V [6], first compound 1.25 µg/mL | – | – | 0.974 | – | 0.916
S. pneumoniae D39V [6], first compound 2.5 µg/mL | – | – | 0.982 | – | 0.89
S. pneumoniae D39V [6], first compound 5 µg/mL | – | – | 0.902 | – | 0.898

fitness, S. aureus DSM 20231 [5], one replicate
Settings | first compound 0.781 µg/mL | first compound 1.562 µg/mL | first compound 3.124 µg/mL
partner 3.12 µg/mL | 0.828 | 0.733 | 0.611
partner 6.24 µg/mL | 0.707 | 0.488 | 0.329

CO/N=C(\C(=O)N[C@@H]1C(=O)N2C(C(=O)O)=C(COC(C)=O)CS[C@H]12)c1csc(N)n1 [Cefotaxime] + CN1C2=CC=CC=C2N=C3C1=CC=CC3=O [Pyocyanin]
Settings | Bliss interaction score
B. subtilis 168 [4] | 0.0372
S. aureus DSM 20231 [1] | 0.0641
S. aureus Newman [3] | 0.0647
S. pneumoniae D39V [2] | 0.0458

fitness, one replicate
Settings | partner 1.25 µg/mL | partner 2.5 µg/mL | partner 5 µg/mL
B. subtilis 168 [8], first compound 0.00775 µg/mL | 0.775 | 0.712 | 0.534
B. subtilis 168 [8], first compound 0.0155 µg/mL | 0.665 | 0.543 | 0.407
B. subtilis 168 [8], first compound 0.031 µg/mL | 0.522 | 0.462 | 0.35
S. aureus DSM 20231 [5], first compound 0.039 µg/mL | 0.748 | 0.738 | 0.512
S. aureus Newman [7], first compound 0.039 µg/mL | 0.677 | 0.696 | 0.424
S. aureus Newman [7], first compound 0.625 µg/mL | 0.0517 | 0.0483 | 0.0237
S. aureus Newman [7], first compound 1.25 µg/mL | 0.0559 | 0.0861 | 0.0706
S. aureus Newman [7], first compound 2.5 µg/mL | 0.0452 | 0.0518 | 0.0704

fitness
Settings | partner 0.325 µg/mL | partner 0.65 µg/mL | partner 1.25 µg/mL | partner 1.3 µg/mL | partner 2.5 µg/mL | partner 5 µg/mL
B. subtilis 168 [8], first compound 0.5 µg/mL | – | – | 0.291 | – | 0.264 | 0.229
B. subtilis 168 [8], first compound 1 µg/mL | – | – | 0.144 | – | 0.102 | 0.111
B. subtilis 168 [8], first compound 2 µg/mL | – | – | 0.0757 | – | 0.0908 | 0.0747
S. aureus DSM 20231 [5], first compound 0.078 µg/mL | – | – | 0.746 | – | 0.766 | 0.55
S. aureus DSM 20231 [5], first compound 0.156 µg/mL | – | – | 0.757 | – | 0.746 | 0.511
S. aureus DSM 20231 [5], first compound 0.312 µg/mL | – | – | 0.676 | – | 0.671 | 0.474
S. aureus Newman [7], first compound 0.078 µg/mL | – | – | 0.671 | – | 0.654 | 0.399
S. aureus Newman [7], first compound 0.156 µg/mL | – | – | 0.527 | – | 0.552 | 0.354
S. aureus Newman [7], first compound 0.312 µg/mL | – | – | 0.311 | – | 0.319 | 0.204
S. pneumoniae D39V [6], first compound 0.0018 µg/mL | 0.992 | ≥ 1 | – | 0.904 | – | –
S. pneumoniae D39V [6], first compound 0.0035 µg/mL | 0.98 | ≥ 1 | – | 0.871 | – | –
S. pneumoniae D39V [6], first compound 0.007 µg/mL | 0.934 | 0.947 | – | 0.839 | – | –

Reference: the supplement of paper PMC10627819
